Assay results taken from the supplement of paper PMC10307832.

What was measured:
Assay in all cases: relative viability (nuclei count vs DMSO), 5 days (fraction); higher = more cells survive
[1] = compound: CC1(COc2ccc3c(c2)ncn3-c2ccc3cccc(N4CCC(N)CC4)c3n2)COC1 [Crenolanib] + N=C(N)NC(=N)NCCc1ccccc1 [Phenformin] (partner 250 µM)
In short: (§1)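 Nuclei were stained with Hoechst during a one-step fixation (final 0.05% Triton X-100, 1% formaldehyde, 1 ug/ml Hoechst) carried out 5 days after dosing, then counted on 4× images. The cells, lung cancer lines in 1536-well plates, had been dosed by pin tool the day after seeding with one drug alone or a fixed anchor-drug dose plus five library-drug doses (not always all listed) in √10 steps. Relative viability is the nuclei count in treated wells divided by that in vehicle wells, and each value is the median of duplicate plates.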

[2] = compound: CC1(COc2ccc3c(c2)ncn3-c2ccc3cccc(N4CCC(N)CC4)c3n2)COC1 [Crenolanib] + CCNC(=O)c1noc(-c2cc(C(C)C)c(O)cc2O)c1-c1ccc(CN2CCOCC2)cc1 [Luminespib] (partner 0.01 µM)
In short: as §1

[3] = compound: O=C1NC(=O)[C@@H](c2cn3c4c(cccc24)CCC3)[C@@H]1c1c[nH]c2ccccc12 [Tivantinib] + C[C@]1(O)C[C@@H](c2nc(-c3ccc4ccc(-c5ccccc5)nc4c3)c3c(N)nccn32)C1 [Linsitinib] (partner 1 µM)
In short: as §1

[4] = compound: CC1(COc2ccc3c(c2)ncn3-c2ccc3cccc(N4CCC(N)CC4)c3n2)COC1 [Crenolanib] + Nc1ncn([C@H]2C[C@H](O)[C@@H](CO)O2)c(=O)n1 [Decitabine] (partner 2 µM)
In short: as §1

Cell Line	relative viability ([1]; first compound 0.01 µM)	relative viability ([1]; first compound 0.03162 µM)	relative viability ([1]; first compound 0.1 µM)	relative viability ([1]; first compound 0.3162 µM)	relative viability ([1]; first compound 1 µM)	relative viability ([2]; first compound 0.01 µM)	relative viability ([2]; first compound 0.03162 µM)	relative viability ([2]; first compound 0.1 µM)	relative viability ([2]; first compound 0.3162 µM)	relative viability ([2]; first compound 1 µM)	relative viability ([3]; first compound 0.01 µM)	relative viability ([3]; first compound 0.03162 µM)	relative viability ([3]; first compound 0.1 µM)	relative viability ([3]; first compound 0.3162 µM)	relative viability ([4]; first compound 0.01 µM)	relative viability ([4]; first compound 0.03162 µM)	relative viability ([4]; first compound 0.1 µM)	relative viability ([4]; first compound 0.3162 µM)	relative viability ([4]; first compound 1 µM)
NCI-H23	0.887	0.855	0.753	0.841	0.669	0.235	0.279	0.226	0.216	0.174	0.539	0.579	0.626	0.561	0.288	0.359	0.347	0.353	0.321
PC-3 [JPC-3]	0.487	0.494	0.46	0.474	0.458	0.806	0.761	0.676	0.742	0.71	0.929	1.04	1.01	0.708	0.785	–	0.806	0.82	0.806
NCI-H520	0.605	0.574	0.75	0.584	0.616	0.19	0.269	0.279	0.216	0.221	1.13	1.11	0.812	0.91	0.54	0.492	0.451	0.575	0.481
NCI-H1666	0.56	0.57	0.565	0.557	0.541	1.07	1.11	0.991	0.977	1.03	0.699	0.807	0.741	0.735	0.757	0.576	0.663	0.692	0.806
NCI-H1792	0.185	0.351	0.244	0.282	0.317	0.563	0.424	0.367	0.394	0.429	0.596	0.431	0.512	0.323	0.567	0.555	0.488	0.569	0.56
NCI-H727	0.636	0.544	0.497	0.565	0.599	0.353	0.376	0.264	0.428	0.376	0.293	0.253	0.243	–	0.872	0.851	0.877	0.997	0.904
HCC-15	0.51	0.506	0.447	0.469	0.327	0.276	0.408	0.355	0.315	0.302	0.89	0.796	0.857	0.911	0.625	0.621	0.603	0.689	0.65
NCI-H647	0.546	0.612	0.551	0.463	0.481	0.202	0.206	0.44	0.233	0.107	1.15	1.19	1.12	1.19	0.376	0.401	0.362	0.502	0.346
NCI-H2347	0.381	–	–	0.546	0.469	0.44	–	–	0.556	0.353	0.996	0.843	1.02	1.01	0.657	0.611	0.605	0.674	0.6
